Source: patent publication US9211310B2, “Use of a Chinese medicine composition in preparing medicaments for treating secondary prevention of myocardial infarction” (TASLY PHARMACEUTICAL GROUP CO., LTD, priority 2010, dated 2015)

System: patients after acute myocardial infarction
Assay: Life quality, Seattle Angina Questionnaire (SAQ), same clinical trial
Type: in vivo, human
Details: PP
Excerpt: 3508 patients who were in accordance with the diagnostic standards of AMI for 28 days to 2 years and differentiated as Qi deficiency and blood stagnation syndrome by TCM were studied. 0.5 g Chinese medicine composition prepared by the method of EXAMPLE 1 (Coded as QSYQ) was administrated half an hour after meal, 3 times per day.
There were 19 questions in the Seattle angina questionnaire (SAQ), including 5 parts: physical limitation (PL), anginal stability (AS), anginal frequency (AF), treatment satisfaction (TS) and disease perception (DP). After being given necessary explanation by doctors, the questions were answered independently by patients.
They included the overall survival time, angina pectoris score, TCM symptom score and life quality score, where angina pectoris score, TCM symptom score and life quality score were evaluated at randomization, in 1st, 3rd, 6th, 9th, 12th month after treatment and 18th month after follow-up.
All evaluation results of SAQ were described during the period of observation, and Wilcoxon rank sum test was used for inter-group comparison.
The evaluation results in the SAQ were depicted in different observations, and inter-group comparison was tested by Wilcoxon Rank-sum test.

CC(=O)Oc1ccccc1C(=O)O [Control group, aspirine]
SAQ Question 1-4: Not limited, percent of patients (Follow-up): (53.63%) | SAQ Question 1-4: Other reasons, number of patients (Follow-up): 10 | SAQ Question 1-4: Other reasons, percent of patients (Follow-up): (0.71%) | SAQ Question 1-4: Severely limited, number of patients (Follow-up): 5 | SAQ Question 1-4: Severely limited, percent of patients (Follow-up): (0.36%) | SAQ Question 1-4: Slightly limited, number of patients (Follow-up): 428 | SAQ Question 1-4: Slightly limited, percent of patients (Follow-up): (30.44%) | SAQ Question 1-5: Mildly limited, number of patients (Follow-up): 181 | SAQ Question 1-5: Mildly limited, percent of patients (Follow-up): (12.87%) | SAQ Question 1-5: Moderately limited, number of patients (Follow-up): 57 | SAQ Question 1-5: Moderately limited, percent of patients (Follow-up): (4.05%) | SAQ Question 1-5: Not limited, number of patients (Follow-up): 765 | SAQ Question 1-5: Not limited, percent of patients (Follow-up): (54.41%) | SAQ Question 1-5: Other reasons, number of patients (Follow-up): 8 | SAQ Question 1-5: Other reasons, percent of patients (Follow-up): (0.57%) | SAQ Question 1-5: Severely limited, number of patients (Follow-up): 9 | SAQ Question 1-5: Severely limited, percent of patients (Follow-up): (0.64%) | SAQ Question 1-5: Slightly limited, number of patients (Follow-up): 386 | SAQ Question 1-5: Slightly limited, percent of patients (Follow-up): (27.45%) | SAQ Question 1-9: Mildly limited, % of cases (Follow-up): (20.25%) | SAQ Question 1-9: Mildly limited, cases (Follow-up): 276 | SAQ Question 1-9: Moderately limited, % of cases (Follow-up): (21.13%) | SAQ Question 1-9: Moderately limited, cases (Follow-up): 288 | SAQ Question 1-9: Not limited, % of cases (Follow-up): (6.09%) | SAQ Question 1-9: Not limited, cases (Follow-up): 83 | SAQ Question 1-9: Other reasons, % of cases (Follow-up): (4.77%) | SAQ Question 1-9: Other reasons, cases (Follow-up): 65 | SAQ Question 1-9: Severely-limited, % of cases (Follow-up): (27.29%) | SAQ Question 1-9: Severely-limited, cases (Follow-up): 372 | SAQ Question 1-9: Slightly limited, % of cases (Follow-up): (20.47%) | SAQ Question 1-9: Slightly limited, cases (Follow-up): 279 | 8th question: Dissatisfied, patients (%) (1 month after treatment): (0.13%) | 8th question: Highly satisfied, patients (%) (1 month after treatment): (17.41%) | 8th question: Mostly dissatisfied, patients (%) (1 month after treatment): (4.23%) | 8th question: Mostly satisfied, patients (%) (1 month after treatment): (48.99%) | 8th question: Partly satisfied, patients (%) (1 month after treatment): (29.23%) | 9th question: Few, patients (%) (1 month after treatment): (25.86%) | 9th question: Mild, patients (%) (1 month after treatment): (35.93%) | 9th question: Moderate, patients (%) (1 month after treatment): (18.94%) | 9th question: Severe, patients (%) (1 month after treatment): (2.01%) | 9th question: Uneffective, patients (%) (1 month after treatment): (17.26%) | 10th question: Dissatisfied, patients (%) (1 month after treatment): (22.24%) | 10th question: Highly satisfied, patients (%) (1 month after treatment): (4.23%) | 10th question: Mostly dissatisfied, patients (%) (1 month after treatment): (23.12%) | 10th question: Mostly satisfied, patients (%) (1 month after treatment): (19.83%) | 10th question: Partly satisfied, patients (%) (1 month after treatment): (30.58%) | 11th question: Continuously worried, patients (%) (1 month after treatment): (6.04%) | 11th question: No worried, patients (%) (1 month after treatment): (4.84%) | 11th question: Occasionally worried, patients (%) (1 month after treatment): (41.24%) | 11th question: Often worried, patients (%) (1 month after treatment): (21.76%) | 11th question: Seldom worried, patients (%) (1 month after treatment): (26.12%) | SAQ 4th question, 1-2 times per week: % of patients (1 month after treatment): (17.41%) | SAQ 4th question, 1-2 times per week: number of patients (1 month after treatment): 259 | SAQ 4th question, 1-3 times per day: % of patients (1 month after treatment): (6.52%) | SAQ 4th question, 1-3 times per day: number of patients (1 month after treatment): 97 | SAQ 4th question, <1 time per week: % of patients (1 month after treatment): (9.07%) | SAQ 4th question, <1 time per week: number of patients (1 month after treatment): 135 | SAQ 4th question, Not used: % of patients (1 month after treatment): (53.23%) | SAQ 4th question, Not used: number of patients (1 month after treatment): 792 | SAQ 4th question, ≧3 times per week: % of patients (1 month after treatment): (13.71%) | SAQ 4th question, ≧3 times per week: number of patients (1 month after treatment): 204 | SAQ 4th question, ≧4 times per day: % of patients (1 month after treatment): (0.07%) | SAQ 4th question, ≧4 times per day: number of patients (1 month after treatment): 1 | SAQ 5th question, Few: % of patients (1 month after treatment): (21.67%) | SAQ 5th question, Few: number of patients (1 month after treatment): 322 | SAQ 5th question, Mild: % of patients (1 month after treatment): (28.94%) | SAQ 5th question, Mild: number of patients (1 month after treatment): 430 | SAQ 5th question, Moderate: % of patients (1 month after treatment): (18.24%) | SAQ 5th question, Moderate: number of patients (1 month after treatment): 271 | SAQ 5th question, None: % of patients (1 month after treatment): (25.44%) | SAQ 5th question, None: number of patients (1 month after treatment): 378 | SAQ 5th question, Not medicated by doctors: % of patients (1 month after treatment): (3.57%) | SAQ 5th question, Not medicated by doctors: number of patients (1 month after treatment): 53 | SAQ 5th question, Severe: % of patients (1 month after treatment): (2.15%) | SAQ 5th question, Severe: number of patients (1 month after treatment): 32 | SAQ 6th question, Dissatisfied: % of patients (1 month after treatment): (0.20%) | SAQ 6th question, Dissatisfied: number of patients (1 month after treatment): 3
